Test results taken from patent US20120083522A1, “MODULATION OF INFLAMMATORY RESPONSES BY FACTOR XI” (Isis Pharmaceuitcals, inc., priority 2009, published 2012).
e = 2'-O-(2-methoxyethyl) (MOE); d = 2'-deoxy (DNA)

Columns and labels:
human Factor XI mRNA [1] = assay: Antisense inhibition in HepG2 cells by microwalk gapmers, 75 nM, lipofectin (Example 3); format: cell-based; conditions: HepG2 cells, 75 nM, oligonucleotides targeted to nucleobases 1275 to 1318 of SEQ ID NO: 1
Procedure, shortened: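 HepG2 cells (10,000 per well) were transfected with 75 nM gapmer using lipofectin and treated for about 24 h. Factor XI mRNA was quantified by real-time PCR, normalized to RiboGreen total RNA and expressed as percent inhibition versus untreated controls.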

human Factor XI mRNA [2] = assay: Dose-dependent antisense inhibition in HepG2 cells, lipofectin (Example 2); format: cell-based; conditions: approximately 16 hours
Method: Cells were plated at a density of 10,000 cells per well and transfected using lipofectin reagent with 9.375 nM, 18.75 nM, 37.5 nM, 75 nM, and 150 nM concentrations of antisense oligonucleotide, as specified in Table 3. After a treatment period of approximately 16 hours, RNA was isolated from the cells and Factor XI mRNA levels were measured by quantitative real-time PCR. Human Factor XI primer probe set RTS 2966 (forward sequence: […], incorporated herein as SEQ ID NO: 3; reverse sequence: […], incorporated herein as SEQ ID NO: 4; probe sequence: TTGTCTACTGAAGCACACCCAAACAGGGAX, wherein X is the fluorophore, incorporated herein as SEQ ID NO: 5) was used to measure mRNA levels. Factor XI mRNA levels were adjusted according to total RNA content, as measured by RIBOGREEN®. Results are presented as percent inhibition of Factor XI, relative to untreated control cells.

human Factor XI mRNA [3] = assay: Antisense inhibition in HepG2 cells by microwalk gapmers, 8,000 nM, electroporation (Example 14); format: cell-based; conditions: HepG2 cells, 8,000 nM
Procedure, shortened: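 Percent reduction of Factor XI transcript, relative to untreated controls, by real-time PCR with RIBOGREEN normalisation. Readout taken about 24 h after electroporating HepG2 cells with 8,000 nM oligonucleotide. Gapmers are 5-10-5, 5-8-5 or 6-8-6 MOE wings, phosphorothioate backbone.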

[4] = set-up: species or system Sprague-Dawley rats; conditions: rat, in vivo, sc, 20 mg/kg
Method: The concentration of the full-length oligonucleotide as well as the total oligonucleotide concentration (including the degraded form) was measured. The method used is a modification of previously published methods (Leeds et al., 1996; Geary et al., 1999) which consist of a phenol-chloroform (liquid-liquid) extraction followed by a solid phase extraction. An internal standard (ISIS 355868, a 27-mer 2′-O-methoxyethyl modified phosphorothioate oligonucleotide, […], designated herein as SEQ ID NO: 270) was added prior to extraction. […] The results are presented in Tables 98 and 99, expressed as μg/g liver or kidney tissue.

human Factor XI mRNA [5] = assay: Dose-dependent inhibition and IC50 in HepG2 cells, electroporation (Example 15); format: cell-based
Method: Cells were plated at a density of 20,000 cells per well and transfected using electroporation with 123.46 nM, 370.37 nM, 1,111.11 nM, 3,333.33 nM and 10,000 nM concentrations of antisense oligonucleotide, as specified in Table 52. After a treatment period of approximately 16 hours, RNA was isolated from the cells and Factor XI mRNA levels were measured by quantitative real-time PCR. Human Factor XI primer probe set RTS 2966 was used to measure mRNA levels. Factor XI mRNA levels were adjusted according to total RNA content, as measured by RIBOGREEN. Results are presented as percent inhibition of Factor XI, relative to untreated control cells.

human Factor XI mRNA [6] = assay: Dose-dependent inhibition in HepG2 cells, lipofectin (Example 4); format: cell-based; conditions: 16 hours
Procedure, shortened: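 Read-out was percent inhibition of Factor XI mRNA relative to untreated controls, by qRT-PCR (RTS 2966) adjusted for RIBOGREEN-measured total RNA. Cells received antisense oligonucleotide at 9.375 to 75 nM (four levels) via lipofectin. Treatment lasted approximately 16 hours, with plating at 10,000 cells per well.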

human Factor XI mRNA [7] = assay: Dose-dependent inhibition in HepG2 cells, electroporation (Example 4); format: cell-based; conditions: 16 hours
Procedure, shortened: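 HepG2 cells electroporated with 0.7, 2.2, 6.7 or 20 μM antisense gapmer and harvested after ~16 h. Factor XI mRNA quantified by qRT-PCR (primer probe set RTS 2966), normalised to total RNA (RIBOGREEN). Reported as percent inhibition versus untreated control cells.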

Substance | % inhibition of human Factor XI mRNA levels (human Factor XI mRNA [1]) [%] | percent inhibition of Factor XI (human Factor XI mRNA [2]; 9.375 nM) [%] | percent inhibition of Factor XI (human Factor XI mRNA [2]; 18.75 nM) [%] | percent inhibition of Factor XI (human Factor XI mRNA [2]; 37.5 nM) [%] | percent inhibition of Factor XI (human Factor XI mRNA [2]; 75 nM) [%] | percent inhibition of Factor XI (human Factor XI mRNA [2]; 150 nM) [%] | Percent inhibition of human Factor XI mRNA levels (human Factor XI mRNA [3]) [%] | Half-life in the liver and kidney [4] [days] | percent inhibition of Factor XI mRNA (human Factor XI mRNA [5]; electroporation, 123.47 nM) [%] | percent inhibition of Factor XI mRNA (human Factor XI mRNA [5]; electroporation, 370.37 nM) [%] | percent inhibition of Factor XI mRNA (human Factor XI mRNA [5]; electroporation, 1,111.11 nM) [%] | percent inhibition of Factor XI mRNA (human Factor XI mRNA [5]; electroporation, 3,333.33 nM) [%] | percent inhibition of Factor XI mRNA (human Factor XI mRNA [5]; electroporation, 10,000.0 nM) [%] | also measured
412223 (antisense ACAGTTTCTGGCAGGCCTCG; sugars from the 5' end e5 d10 e5, backbone and methylation of C not given here) [compound 412223] | 85 | 33 | 48 | 62 | 76 | 81 | 62 | 22 | – | – | – | – | – | –
412224 (antisense GCATTGGTGCACAGTTTCTG; sugars from the 5' end e5 d10 e5, backbone and methylation of C not given here) [compound 412224] | 93 | 24 | 45 | 57 | 70 | 81 | 84 | 17 | – | – | – | – | – | –
412225 (antisense GCAGCGGACGGCATTGGTGC; sugars from the 5' end e5 d10 e5, backbone and methylation of C not given here) [compound 412225] | 86 | 32 | 42 | 65 | 78 | 73 | 86 | 21 | – | – | – | – | – | –
413481 (antisense GGTGCACAGTTTCTGGCAGG; sugars from the 5' end e5 d10 e5, backbone and methylation of C not given here) [compound 413481] | – | 22 | 38 | 56 | 67 | 83 | 82 | 21 | – | – | – | – | – | –
413482 (antisense GGACGGCATTGGTGCACAGT; sugars from the 5' end e5 d10 e5, backbone and methylation of C not given here) [compound 413482] | 89 | 26 | 39 | 59 | 74 | 82 | 88 | 20 | – | – | – | – | – | –
416851 (antisense GTGCACAGTTTCTGGCAGGC; 5-10-5 gapmer, wing sugar chemistry not given here, further chemistry not given here) [compound 416851] | 88 | – | – | – | – | – | 89 | 24 | 13 | 35 | 36 | 64 | 72 | –
416856 (antisense GGCATTGGTGCACAGTTTCT; 5-10-5 gapmer, wing sugar chemistry not given here, further chemistry not given here) [compound 416856] | 95 | – | – | – | – | – | 84 | 19 | 12 | 23 | 35 | 59 | 83 | percent inhibition of Factor XI mRNA, relative to untreated control cells (human Factor XI mRNA [6]; 9.375 nM): 21%; percent inhibition of Factor XI mRNA, relative to untreated control cells (human Factor XI mRNA [6]; 18.75 nM): 45%; percent inhibition of Factor XI mRNA, relative to untreated control cells (human Factor XI mRNA [6]; 37.5 nM): 58%; percent inhibition of Factor XI mRNA, relative to untreated control cells (human Factor XI mRNA [6]; 75 nM): 74%; percent inhibition of Factor XI mRNA, relative to untreated control cells (human Factor XI mRNA [7]; 0.7 μM): 0%; percent inhibition of Factor XI mRNA, relative to untreated control cells (human Factor XI mRNA [7]; 2.2 μM): 29%; percent inhibition of Factor XI mRNA, relative to untreated control cells (human Factor XI mRNA [7]; 6.7 μM): 47%; percent inhibition of Factor XI mRNA, relative to untreated control cells (human Factor XI mRNA [7]; 20 μM): 93%
416859 (antisense GACGGCATTGGTGCACAGTT; 5-10-5 gapmer, wing sugar chemistry not given here, further chemistry not given here) [compound 416859] | 90 | – | – | – | – | – | 85 | 19 | – | – | – | – | – | –
416860 (antisense CGGACGGCATTGGTGCACAG; 5-10-5 gapmer, wing sugar chemistry not given here, further chemistry not given here) [compound 416860] | 88 | – | – | – | – | – | 89 | 21 | 0 | 28 | 39 | 41 | 40 | –
416861 (antisense GCGGACGGCATTGGTGCACA; 5-10-5 gapmer, wing sugar chemistry not given here, further chemistry not given here) [compound 416861] | 92 | – | – | – | – | – | 90 | 25 | 0 | 15 | 27 | 66 | 80 | –
416863 (antisense CAGCGGACGGCATTGGTGCA; 5-10-5 gapmer, wing sugar chemistry not given here, further chemistry not given here) [compound 416863] | 83 | – | – | – | – | – | 86 | 20 | – | – | – | – | – | –
416866 (antisense CTGGCAGCGGACGGCATTGG; 5-10-5 gapmer, wing sugar chemistry not given here, further chemistry not given here) [compound 416866] | 88 | – | – | – | – | – | 84 | 16 | – | – | – | – | – | –
416867 (antisense ACTGGCAGCGGACGGCATTG; 5-10-5 gapmer, wing sugar chemistry not given here, further chemistry not given here) [compound 416867] | 83 | – | – | – | – | – | 85 | 19 | – | – | – | – | – | –
